Laboratory results published in patent US12186303B2, “Feed additive for cattle comprising n-acetyl-l-tryptophan as active ingredient” (CJ CHEILJEDANG CORPORATION, priority 2018, dated 2025).
Entries after “also recorded” stand apart in the source; their conditions may differ.

Legend:
Korean native steers = assay: Body weight, average daily gain and feed conversion ratio according to NALT feeding under cold stress conditions; assay type: in vivo, Korean native cattle
Experimental: In the present disclosure, 8 Korean native steers (8.3±0.72 months old on average) were selected and used. […] Analysis of chemical composition (moisture, crude protein, crude fat, crude ash, etc.) and amino acids (19 types) of the basal diet stored at −20° C. was performed, and the results are shown in Table 3. After grouping the animals by statistical analysis of initial body weights, the animals were bred in 1.0×1.5 m^2 individual pens during the experiment period. The feed was offered based on an amount of dry matter of daily total mixed ration (TMR) per head. After 7 days of an adaptation period for N-acetyl-L-tryptophan (NALT), a mixture of 0.1% N-acetyl-L-tryptophan (NALT) and the total mixed ration was fed to individual animals every morning at 8 a.m. for 6 weeks, and water was available ad libitum. Total amounts of L-tryptophan ingested by the control and NALT-treated group by feeding NALT were 7.37 g/day/head and 16.26 g/day/head, respectively. The experiment was performed such that the NALT-treated group ingested 8.89 g/day/head more L-tryptophan than that of the control. Meanwhile, results of growth performance analysis (body weight and average feed intake) and genetic analysis of loin tissue were obtained by statistically comparing and analyzing significant differences between the control and the NALT-treated group, and results of hematological analysis were obtained via statistical comparison and analysis depending on NALT treatment, experiment period (days), and interaction (treatment×days). These numerical values were expressed as average values, and a significance test was performed at the 5% level using Student's t-test by using the JMP 5.0 software package (SAS Institute Inc., Cary, NC, USA). An average temperature during the adaptation period (days 0-6) was 4.3° C., and average temperatures during the experiment period were in the range of −6.2° C. to 4.2° C., relatively low compared to that of the adaptation period. In addition, an average temperature of the entire experiment period (days 7-48) was −1.0° C. Initial weight (day 0), intermediate weight (day 27), and end weight (day 48) of sentinel animals were measured, i.e., three times in total, before offering morning feed. The average daily gain (average daily weight gain, ADG) of the sentinel animals was calculated by dividing the differences in weight, between the initial weight and the intermediate weight and between the intermediate weight and the end weight, by the total number of days of the experiment.

[1] = system: genes related to muscle metabolism (MYF6, MyoD, and Desmin) and fat metabolism (PPARr, CEBPa, and FABP4) of the loin tissue; assay: Real-time PCR of gene expression related to loin tissue development under cold stress conditions; assay type: in vivo, Korean native cattle
From the text: After grouping the animals by statistical analysis of initial body weights, the animals were bred in 1.0×1.5 m^2 individual pens during the experiment period. The feed was offered based on an amount of dry matter of daily total mixed ration (TMR) per head. After 7 days of an adaptation period for N-acetyl-L-tryptophan (NALT), a mixture of 0.1% N-acetyl-L-tryptophan (NALT) and the total mixed ration was fed to individual animals every morning at 8 a.m. for 6 weeks, and water was available ad libitum. Total amounts of L-tryptophan ingested by the control and NALT-treated group by feeding NALT were 7.37 g/day/head and 16.26 g/day/head, respectively. The experiment was performed such that the NALT-treated group ingested 8.89 g/day/head more L-tryptophan than that of the control. Meanwhile, results of growth performance analysis (body weight and average feed intake) and genetic analysis of loin tissue were obtained by statistically comparing and analyzing significant differences between the control and the NALT-treated group, and results of hematological analysis were obtained via statistical comparison and analysis depending on NALT treatment, experiment period (days), and interaction (treatment×days). These numerical values were expressed as average values, and a significance test was performed at the 5% level using Student's t-test by using the JMP 5.0 software package (SAS Institute Inc., Cary, NC, USA). Samples of loin tissue of the sentinel animals were obtained at the final day of the experiment (day 48) using a biopsy gun for large animals (TNT Research Co., Ltd., Gyeonggi-do, Republic of Korea), added to a 2 mL tube, and incubated in liquid nitrogen gas. After extracting RNA from each tissue sample, real-time PCR was conducted to analyze expression levels of genes related to muscle metabolism (MYF6, MyoD, and Desmin) and fat metabolism (PPARr, CEBPa, and FABP4) of the loin tissue of each animal.

[2] = 0.1% NALT, day 48, control = 1.000

CC(=O)N[C@@H](Cc1c[nH]c2ccccc12)C(=O)O [NALT, N-acetyl-L-tryptophan]
Decrease of feed conversion ratio compared to the control (Korean native steers; 0.1% NALT in TMR): 63% | Feed conversion ratio of the NALT-treated group relative to the control (Korean native steers; 0.1% NALT in TMR): 37% | Body weight (Korean native steers; 0.1% NALT in TMR, Day 0 (initial weight)): 279.7 kg | Body weight (Korean native steers; 0.1% NALT in TMR, Day 27): 301.5 kg | Feed conversion ratio (Korean native steers; 0.1% NALT in TMR, Day 27): 13.3 | ADG (average daily gain) (Korean native steers; 0.1% NALT in TMR, Day 27 (day 0 to day 27)): 0.753 kg/day | Body weight (Korean native steers; 0.1% NALT in TMR, Day 48): 315.7 kg | Feed conversion ratio (Korean native steers; 0.1% NALT in TMR, Day 48): 4.82 | ADG (average daily gain) (Korean native steers; 0.1% NALT in TMR, Day 48 (day 27 to day 48)): 0.766 kg/day | Total weight change compared with the control (Korean native steers; day 27 and day 48): no statistically significant difference | Expression of genes (MYF6, MyoD, and Desmin) related to muscle metabolism of loin tissue compared with the control [1]: did not show a statistically significant difference; also recorded: No statistically significant difference | Expression of genes (PPARr, CEBPa, and FABP4) related to fat metabolism of loin tissue compared with the control [1]: lower | CEBPa expression level in loin tissue [1, 2]: 0.293 | Desmin expression level in loin tissue [1, 2]: 0.871 | FABP4 expression level in loin tissue [1, 2]: 0.233 | MYF6 expression level in loin tissue [1, 2]: 0.834 | MyoD expression level in loin tissue [1, 2]: 0.857 | PPARr expression level in loin tissue [1, 2]: 0.274
